target: T1, Q46 protein aggregates (Homo sapiens, UniProt P42858); experiment: Q46 Radioligand Binding Assay (RBA), displacement of [3H3]MK-3328; conditions: 5 μM Q46 protein aggregates, 10 nM ligand [3H3]MK-3328, 60 minutes at 37° C.
T1 construct: fused on or other part: GST at the N-terminus, cut off with thrombin before aggregation
Experimental: Q46 Radioligand Binding Assay
For radioligand binding assays (RBA) GST-Q46 protein was generated based on a previous publication (Scherzinger et al. Cell, Vol. 90, 549-558, Aug. 8, 1997). For experiments 33 μM GST-Q46 was incubated with 150 μg/ml thrombin in assay buffer (150 mM NaCl, 50 mM Tris pH 8.0) and 2 mM CaCl2 for 16 hr at 37° C. Aggregated Q46 was pelleted by centrifugation for 5 min at 13,000 rpm in a bench top centrifuge and re-dissolved in the same volume of assay buffer. Test compounds were prepared by titration in DMSO at 11 concentrations from 33 μM to 1 nM. For the RBA, Q46 protein aggregates and test compounds were pre-incubated in assay buffer for 20 min at room temperature, in 140 μL/well in a 96-well plate (pp, round bottom). Then, ligand was added in 10 μL/well and incubated for 60 minutes at 37° C. Final assay concentrations were […] test compound, 5 μM Q46 protein (equivalent monomer concentration) and 10 nM ligand [^3H3]MK-3328 (Harrision et al., ACS Med Chem. Lett., 2 (2011), pp 498-502). Samples were transferred onto GF/B filter plates and washed 2× with 200 μL PBS using a Filtermate Harvester. After drying filter plates for 1 hour at 37° C., the back of the plates was sealed with foil and 30 μL/well scintillation fluid (Packard MicroScint 40) was added, incubated for 15 min in the dark and counted in a TopCount reader. For analysis, replicate data from independent assay plates were normalized towards 0% and 100% inhibition using control wells of vehicle (0% inhibition) and 3 μM unlabelled MK-3328 (100% inhibition). IC50 values were determined with a sigmoidal inhibition model with four variables (top, bottom, slope, IC50) in a global fit using the normalized replicate data.

T1 sequence (P42858 with tags, fused parts or gaps with the stated changes, form open): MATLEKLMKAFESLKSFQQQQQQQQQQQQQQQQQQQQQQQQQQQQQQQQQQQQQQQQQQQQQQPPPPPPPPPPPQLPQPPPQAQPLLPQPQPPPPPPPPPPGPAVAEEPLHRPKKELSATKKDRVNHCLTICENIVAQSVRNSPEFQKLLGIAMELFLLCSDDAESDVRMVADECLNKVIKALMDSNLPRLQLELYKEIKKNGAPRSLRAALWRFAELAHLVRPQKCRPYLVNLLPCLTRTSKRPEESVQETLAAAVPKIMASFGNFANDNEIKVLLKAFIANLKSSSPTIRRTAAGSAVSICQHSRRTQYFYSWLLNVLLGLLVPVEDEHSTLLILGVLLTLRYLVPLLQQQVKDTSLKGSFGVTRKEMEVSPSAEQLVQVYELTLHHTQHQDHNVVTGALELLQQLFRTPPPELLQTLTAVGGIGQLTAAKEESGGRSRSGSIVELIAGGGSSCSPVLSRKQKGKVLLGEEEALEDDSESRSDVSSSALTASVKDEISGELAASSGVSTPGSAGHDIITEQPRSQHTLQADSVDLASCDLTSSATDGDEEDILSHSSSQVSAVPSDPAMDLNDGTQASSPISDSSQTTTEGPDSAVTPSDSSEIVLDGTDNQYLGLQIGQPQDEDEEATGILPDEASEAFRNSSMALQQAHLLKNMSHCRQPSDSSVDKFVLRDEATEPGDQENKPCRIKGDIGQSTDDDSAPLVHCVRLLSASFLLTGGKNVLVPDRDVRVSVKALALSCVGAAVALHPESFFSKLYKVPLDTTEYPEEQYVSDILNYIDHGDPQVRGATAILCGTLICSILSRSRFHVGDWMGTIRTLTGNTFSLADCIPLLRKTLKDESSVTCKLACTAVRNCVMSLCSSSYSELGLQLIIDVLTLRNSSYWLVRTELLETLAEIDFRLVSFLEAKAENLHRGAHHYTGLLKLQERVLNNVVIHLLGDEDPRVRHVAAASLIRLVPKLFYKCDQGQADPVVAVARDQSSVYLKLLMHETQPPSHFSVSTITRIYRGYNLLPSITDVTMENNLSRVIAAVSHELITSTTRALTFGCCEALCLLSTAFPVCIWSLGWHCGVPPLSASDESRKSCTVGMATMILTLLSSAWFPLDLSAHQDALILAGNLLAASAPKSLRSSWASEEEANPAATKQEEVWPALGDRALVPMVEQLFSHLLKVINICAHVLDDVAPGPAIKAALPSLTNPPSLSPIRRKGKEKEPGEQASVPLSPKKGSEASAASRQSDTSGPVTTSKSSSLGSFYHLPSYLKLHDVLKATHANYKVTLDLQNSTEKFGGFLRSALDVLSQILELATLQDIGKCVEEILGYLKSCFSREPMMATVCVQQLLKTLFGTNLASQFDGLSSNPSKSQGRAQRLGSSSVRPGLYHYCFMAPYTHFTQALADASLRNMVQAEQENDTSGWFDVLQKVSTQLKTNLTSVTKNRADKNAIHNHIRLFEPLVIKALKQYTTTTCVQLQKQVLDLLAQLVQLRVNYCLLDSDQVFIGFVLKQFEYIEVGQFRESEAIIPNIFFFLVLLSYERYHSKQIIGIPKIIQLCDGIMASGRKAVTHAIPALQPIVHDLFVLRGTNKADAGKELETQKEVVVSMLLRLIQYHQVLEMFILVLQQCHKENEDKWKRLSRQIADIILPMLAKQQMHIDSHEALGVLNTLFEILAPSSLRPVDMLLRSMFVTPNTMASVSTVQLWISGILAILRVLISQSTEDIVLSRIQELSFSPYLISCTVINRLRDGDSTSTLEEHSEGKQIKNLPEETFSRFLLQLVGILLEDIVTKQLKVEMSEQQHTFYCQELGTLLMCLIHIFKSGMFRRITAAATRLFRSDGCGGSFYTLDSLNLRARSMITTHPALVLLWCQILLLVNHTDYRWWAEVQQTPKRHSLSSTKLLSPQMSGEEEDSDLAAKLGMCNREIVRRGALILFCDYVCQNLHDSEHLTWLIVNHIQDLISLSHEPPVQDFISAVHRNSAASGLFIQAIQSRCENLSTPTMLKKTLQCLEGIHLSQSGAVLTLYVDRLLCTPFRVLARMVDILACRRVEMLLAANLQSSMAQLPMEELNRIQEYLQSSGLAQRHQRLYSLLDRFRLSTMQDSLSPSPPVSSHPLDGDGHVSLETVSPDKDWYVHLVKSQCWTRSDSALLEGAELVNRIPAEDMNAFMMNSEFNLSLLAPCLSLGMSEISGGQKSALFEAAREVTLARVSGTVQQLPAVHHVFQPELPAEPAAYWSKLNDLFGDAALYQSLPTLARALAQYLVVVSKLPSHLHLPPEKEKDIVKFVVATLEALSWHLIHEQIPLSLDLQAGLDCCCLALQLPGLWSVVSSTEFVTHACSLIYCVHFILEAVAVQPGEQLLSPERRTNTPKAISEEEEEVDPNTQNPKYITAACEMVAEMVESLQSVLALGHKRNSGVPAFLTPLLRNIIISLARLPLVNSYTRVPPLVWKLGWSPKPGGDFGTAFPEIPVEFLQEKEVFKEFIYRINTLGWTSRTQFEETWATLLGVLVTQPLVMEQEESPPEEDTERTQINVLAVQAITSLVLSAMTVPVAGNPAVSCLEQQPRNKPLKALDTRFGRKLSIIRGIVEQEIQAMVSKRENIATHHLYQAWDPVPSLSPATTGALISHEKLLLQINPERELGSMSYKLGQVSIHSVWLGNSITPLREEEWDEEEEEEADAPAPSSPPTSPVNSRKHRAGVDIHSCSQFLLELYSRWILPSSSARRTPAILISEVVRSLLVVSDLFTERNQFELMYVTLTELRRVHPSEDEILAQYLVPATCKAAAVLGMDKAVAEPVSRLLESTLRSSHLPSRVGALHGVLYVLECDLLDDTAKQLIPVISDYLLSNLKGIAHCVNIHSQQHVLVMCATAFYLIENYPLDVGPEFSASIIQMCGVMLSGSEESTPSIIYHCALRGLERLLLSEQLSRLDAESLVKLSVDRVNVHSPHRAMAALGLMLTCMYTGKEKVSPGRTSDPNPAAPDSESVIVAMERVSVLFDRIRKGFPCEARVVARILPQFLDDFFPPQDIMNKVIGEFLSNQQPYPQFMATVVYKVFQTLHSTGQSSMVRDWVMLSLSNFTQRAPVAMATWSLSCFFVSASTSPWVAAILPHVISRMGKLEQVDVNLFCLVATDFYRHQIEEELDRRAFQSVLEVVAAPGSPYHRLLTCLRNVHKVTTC

Row | Compound | IC50 [nM]
1 | COc1ccc2c(c1)CN(c1ncccc1C#N)C2 [2-(5-methoxy-2,3-dihydro-1H-isoindol-2-yl)pyridine-3-carbonitrile] | < 100
2 | N#Cc1cccnc1N1Cc2ccc(OCc3cncnc3)cc2C1 [2-[5-(pyrimidin-5-ylmethoxy)-2,3-dihydro-1H-isoindol-2-yl]pyridine-3-carbonitrile] | < 100
3 | COc1ccc2c(c1)CN(c1ccncc1C#N)C2 [4-(5-methoxy-2,3-dihydro-1H-isoindol-2-yl)pyridine-3-carbonitrile] | < 100
4 | COc1ccc2c(c1)CN(c1ncncc1C#N)C2 [4-(5-methoxy-2,3-dihydro-1H-isoindol-2-yl)pyrimidine-5-carbonitrile] | < 100
5 | N#Cc1cncnc1N1Cc2ccc(OCc3ccccc3)cc2C1 [4-[5-(benzyloxy)-2,3-dihydro-1H-isoindol-2-yl]pyrimidine-5-carbonitrile] | < 100
6 | N#Cc1cnccc1N1Cc2ccc(OCc3ccc(O)cn3)cc2C1 [4-{5-[(5-hydroxypyridin-2-yl)methoxy]-2,3-dihydro-1H-isoindol-2-yl}pyridine-3-carbonitrile] | < 100
7 | N#Cc1cncnc1N1Cc2ccc(OCc3ccc(O)cn3)cc2C1 [4-{5-[(5-hydroxypyridin-2-yl)methoxy]-2,3-dihydro-1H-isoindol-2-yl}pyrimidine-5-carbonitrile] | < 100
8 | COc1ccc(COc2ccc3c(c2)CN(c2ncncc2C#N)C3)nc1 [4-{5-[(5-methoxypyridin-2-yl)methoxy]-2,3-dihydro-1H-isoindol-2-yl}pyrimidine-5-carbonitrile] | < 100
9 | COc1cnc(COc2ccc3c(c2)CN(c2ccncc2)C3)cn1 [5-[(5-methoxypyrazin-2-yl)methoxy]-2-(pyridin-4-yl)-2,3-dihydro-1H-isoindole] | < 100

The next lines start with the values.

Row | IC50 [nM] | Compound
10 | < 100 | COc1ccc(COc2ccc3c(c2)CN(c2ncccc2C#N)C3)nc1 [2-{5-[(5-methoxypyridin-2-yl)methoxy]-2,3-dihydro-1H-isoindol-2-yl}pyridine-3-carbonitrile]
11 | < 100 | N#Cc1cnccc1N1Cc2ccc(OCc3cncnc3)cc2C1 [4-[5-(pyrimidin-5-ylmethoxy)-2,3-dihydro-1H-isoindol-2-yl]pyridine-3-carbonitrile]
12 | < 100 | COc1ccc(COc2ccc3c(c2)CN(c2ccncc2C#N)C3)nc1 [4-{5-[(5-methoxypyridin-2-yl)methoxy]-2,3-dihydro-1H-isoindol-2-yl}pyridine-3-carbonitrile]
13 | < 100 | COc1ccc(COc2ccc3c(c2)CN(c2ccncc2)C3=O)nc1 [5-[(5-methoxypyridin-2-yl)methoxy]-2-(pyridin-4-yl)-2,3-dihydro-1H-isoindol-1-one]
14 | < 100 | COc1ccc(COc2ccc3c(c2)CN(c2ccc(=O)n(C)n2)C3)nc1 [6-{5-[(5-methoxypyridin-2-yl)methoxy]-2,3-dihydro-1H-isoindol-2-yl}-2-methyl-2,3-dihydropyridazin-3-one]

system: recombinant tau and amyloid β1-42 (Aβ1-42) aggregates; experiment: not given; conditions: higher affinity for the tau aggregates than Aβ1-42 aggregates; cited from earlier work

Row | Compound | ratio of Kd values (affinity for tau aggregates versus Aβ1-42 aggregates)
15 | CN(C)c1ccc(/C=C/c2nc3ccc(I)cc3[nH]2)cc1 [SBIM-3, 4-[(E)-2-(6-iodo-1H-benzimidazol-2-yl)ethenyl]-N,N-di methyl aniline] | 2.73

system: NFT in sections of AD brain tissue; experiment: not given; conditions: in vitro autoradiography ([125I]SBIM-3) and fluorescent staining (SBIM-3); cited from earlier work

Row | Compound | binding to NFT in sections of AD brain tissue
16 | CN(C)c1ccc(/C=C/c2nc3ccc(I)cc3[nH]2)cc1 [SBIM-3, 4-[(E)-2-(6-iodo-1H-benzimidazol-2-yl)ethenyl]-N,N-di methyl aniline] | bound NFT in sections of AD brain tissue

— US12036291B2, “Probes for imaging huntingtin protein” (CHDI Foundation, Inc., priority 2014, dated 2024)
